The numbers were not newly measured in US20240207235A1, “NANOEMULSION FORMULATION FOR TREATING DISBETES MELLITUS (DM)” (KING FAISAL UNIVERSITY, priority 2022, published 2024), which cites them from elsewhere.

In the case of `CCc1ccc(CCOc2ccc(CC3SC(=O)NC3=O)cc2)nc1` (stereo not shown) [PGZ, Pioglitazone], the solubility entry was “low solubility”.
